Assay results reported in patent publication US5550139A, “Serine protease inhibitors” (The Wichita State University, priority 1994, dated 1996).
Values belong to the molecule of their own block, whether it stands above or below them.

Legend:
[1] = molecular target: T1, cathepsin G (Cath G) (Homo sapiens, UniProt P08311); experiment: Inactivation of human leukocyte cathepsin G (kobs/[I]); type: biochemical; conditions: for kinact/KI: pH 7.5
T1 construct: purchased Athens Research and Technology, Athens, Ga
T1 sequence (P08311 21-244 limits assumed): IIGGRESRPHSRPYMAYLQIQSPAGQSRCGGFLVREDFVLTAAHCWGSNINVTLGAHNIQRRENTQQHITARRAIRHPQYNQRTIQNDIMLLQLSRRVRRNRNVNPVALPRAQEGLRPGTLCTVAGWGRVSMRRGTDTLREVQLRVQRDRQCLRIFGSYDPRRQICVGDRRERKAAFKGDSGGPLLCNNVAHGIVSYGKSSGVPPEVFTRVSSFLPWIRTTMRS
Experimental: Human leukocyte cathepsin G (1.33 uM) is incubated with compound 8 (133 uM) (a) or compound 10 (13.3 uM) (b) in 0.1M HEPES buffer, pH 7.5, and 10% DMSO. Aliquots were withdrawn at different time intervals and assayed for enzymatic activity using methoxysuccinyl Ala-Ala-Pro-Phe p-nitroanilide.
Human leukocyte cathepsin G (1.48 μM was incubated with inhibitor 5A (1.48 μM in 0.1M HEPES buffer, pH 7.5, and 1% DMSO. Aliquots were withdrawn at different time intervals and assayed for enzymatic activity using methoxysuccinyl Ala-Ala-Pro-Phe p-nitroanilide.
(§1) An in vitro assay can be used to screen compounds of the invention for the ability to reduce or inhibit serine proteinase activity. The human leukocyte elastase (HLE), cathepsin G (Cath G), and proteinase-3 assays have each been described (Groutas et al., J. Med. Chem. 32:1607-1611, 1989; Groutas et al., Arch. Biochem. Biophys. 294:144-146, 1992; Kao et al., J. Clin. Invest. 82:1963-1973, 1988, each incorporated by reference herein). The pseudo first-order inactivation rate constants (kobs) were obtained from plots of ln(vt /vo) vs t, and expressed in terms of the apparent second-order inactivation rate constant, kobs /[I] M^-1 s^-1 (Tables 1-7). Tables 1-7 disclose the activity of preferred compounds of the invention as inhibitors of HLE and Cath G. Table 7 discloses the activity of Compounds 4A (C) and 3E (D) as inhibitors of Proteinase-3 activity. Compounds (A) and (B) have been disclosed previously (Groutas et al., Bioorganic and Med. Chem. 1(4):273-277, 1993; Groutas et al., J. Med. Chem. 36:3178, 1993).
(§2) Human leukocyte cathepsin G was obtained from Athens Research and Technology, Athens, Ga. Methoxysuccinyl Ala-Ala-Pro-Val p-nitroanilide and methoxysuccinyl Ala-Ala-Pro-Phe p-nitroanilide were purchased from Sigma Chemicals Co., St. Louis, Mo. Baker-analyzed 60-200 mesh silica gel was used for flash chromatography.

[2] = molecular target: T2, human leukocyte elastase (HLE) (Homo sapiens, UniProt P08246); experiment: Inactivation of human leukocyte elastase (kobs/[I]); type: biochemical
T2 construct: purchased Elastin Products Co., Owensville, Mo
T2 sequence (P08246 30-247 limits assumed): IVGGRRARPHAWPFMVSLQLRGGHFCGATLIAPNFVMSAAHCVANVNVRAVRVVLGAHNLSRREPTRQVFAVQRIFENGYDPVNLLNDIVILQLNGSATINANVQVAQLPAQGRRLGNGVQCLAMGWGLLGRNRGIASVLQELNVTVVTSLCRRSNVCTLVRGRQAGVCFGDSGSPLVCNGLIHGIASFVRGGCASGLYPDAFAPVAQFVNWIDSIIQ
Excerpt: as §1
XII. Materials: Human leukocyte elastase was purchased from Elastin Products Co., Owensville, Mo.
as §2

kinact/KI ([2]; Table 2): 930 M⁻¹ s⁻¹
Compound: O=C1[C@H](Cc2ccccc2)N(Cc2ccccc2)S(=O)(=O)N1CF [Compound 3A, (S)-4.5-Dibenzyl-2-fluoromethyl-3-oxo-1,2,5-thiadiazolidine 1.1-dioxide]

kinact/KI ([1]; Table 3): 160 M⁻¹ s⁻¹ | kinact/KI ([2]; Table 3): 2300 M⁻¹ s⁻¹
Compound: O=C(N[C@H](Cc1ccccc1)C(=O)OCN1C(=O)C(Cc2ccccc2)CS1(=O)=O)OCc1ccccc1 (stereo partly drawn) [Compound 3B]

kinact/KI ([1]; Table 4): 3340 M⁻¹ s⁻¹ | kinact/KI ([2]; Table 4): 1020 M⁻¹ s⁻¹
Compound: O=C(CSc1ccccc1)OCN1C(=O)C(Cc2ccccc2)CS1(=O)=O (stereo not drawn) [Compound 3C]

kinact/KI ([1]; Table 3): 260 M⁻¹ s⁻¹ | kinact/KI ([2]; Table 3): 1140 M⁻¹ s⁻¹
Compound: CC(C)(C)OC(=O)N[C@H](Cc1ccccc1)C(=O)OCN1C(=O)C(Cc2ccccc2)CS1(=O)=O (stereo partly drawn) [Compound 4B]

kinact/KI ([1]; Table 4): 770 M⁻¹ s⁻¹ | kinact/KI ([2]; Table 4): 320 M⁻¹ s⁻¹
Compound: O=C(C[S+]([O-])c1ccccc1)OCN1C(=O)C(Cc2ccccc2)CS1(=O)=O (stereo not drawn) [Compound 4C]

kinact/KI ([2]; Table 6): 1710 M⁻¹ s⁻¹
Compound: CC(C)C[C@H]1C(=O)N(CS(=O)(=O)c2ccccc2)S(=O)(=O)N1CC(=O)OCc1ccccc1 [Compound 4E]

kinact/KI ([2]; Table 2): 810 M⁻¹ s⁻¹
Compound: O=C(CN1[C@@H](Cc2ccccc2)C(=O)N(CF)S1(=O)=O)OCc1ccccc1 [Compound 5A, (S) -Benzyl-5(benzyloxycarbonylmethyl)-2-fluoromethyl-3-oxo-1,2,5-thiadiazolidine 1.1-dioxide]
time-dependent loss of serine protease activity ([1]; FIG. 6, Cath G 1.48 μM, inhibitor 1.48 μM, 0.1M HEPES pH 7.5, 1% DMSO): time-dependent loss of serine protease activity

kinact/KI ([1]; Table 3): 7700 M⁻¹ s⁻¹ | kinact/KI ([2]; Table 3): 220 M⁻¹ s⁻¹
Compound: O=C(OCN1C(=O)C(Cc2ccccc2)CS1(=O)=O)[C@@H]1CCCN1C(=O)OCc1ccccc1 (stereo partly drawn) [Compound 5B]

The remaining lines, values behind:

Compound: O=C1[C@H](Cc2ccccc2)NS(=O)(=O)N1CF [Compound 1A, (S)-4-Benzyl-2-fluoromethyl-3-oxo-1,2,5-thiadiazolidine 1.1-dioxide]
kinact/KI ([1]; Table 2): 600 M⁻¹ s⁻¹

Compound: O=C(N[C@@H](Cc1ccccc1)C(=O)OCN1C(=O)C(Cc2ccccc2)CS1(=O)=O)OCc1ccccc1 (stereo partly drawn) [Compound 1B]
kinact/KI ([1]; Table 3): 20 M⁻¹ s⁻¹ | kinact/KI ([2]; Table 3): 110 M⁻¹ s⁻¹

Compound: O=C(/C=C/c1ccccc1)OCN1C(=O)C(Cc2ccccc2)CS1(=O)=O (stereo not drawn) [Compound 1C]
kinact/KI ([1]; Table 4): 3220 M⁻¹ s⁻¹ | kinact/KI ([2]; Table 4): 280 M⁻¹ s⁻¹

Compound: O=C1C(Cc2ccccc2)CS(=O)(=O)N1CF (stereo not drawn) [Compound 1D, 4-benzyl-2-(fluoromethyl)isothiazolidin-3-one 1,1 dioxide]
kinact/KI ([1]; Table 5): 2700 M⁻¹ s⁻¹ | kinact/KI ([2]; Table 5): 160 M⁻¹ s⁻¹

Compound: O=C1[C@H](Cc2ccccc2)N(S(=O)(=O)c2ccccc2)S(=O)(=O)N1CS(=O)(=O)c1ccccc1 [Compound 1E]
kinact/KI ([1]; Table 6): 830 M⁻¹ s⁻¹

Compound: CC(C)Cc1ccc(C(C)C(=O)OCN2C(=O)C(Cc3ccccc3)CS2(=O)=O)cc1 (stereo not drawn) [Compound 1]
kinact/KI ([1]; Table 1A): 240 M⁻¹ s⁻¹ | kinact/KI ([2]; Table 1A): 160 M⁻¹ s⁻¹

Compound: CN1[C@@H](Cc2ccccc2)C(=O)N(CF)S1(=O)=O [Compound 2A, (S)-4-Benzyl-2-fluoromethyl-5-methyl-3-oxo-1,2,5-thiadiazolidine 1.1-dioxide]
kinact/KI ([1]; Table 2): 750 M⁻¹ s⁻¹ | kinact/KI ([2]; Table 2): 1320 M⁻¹ s⁻¹

Compound: CC(C)(C)OC(=O)N[C@@H](Cc1ccccc1)C(=O)OCN1C(=O)C(Cc2ccccc2)CS1(=O)=O (stereo partly drawn) [Compound 2B]
kinact/KI ([1]; Table 3): 10 M⁻¹ s⁻¹ | kinact/KI ([2]; Table 3): 680 M⁻¹ s⁻¹

Compound: O=C(CCc1ccccc1)OCN1C(=O)C(Cc2ccccc2)CS1(=O)=O (stereo not drawn) [Compound 2C]
kinact/KI ([1]; Table 4): 640 M⁻¹ s⁻¹ | kinact/KI ([2]; Table 4): 680 M⁻¹ s⁻¹

Compound: O=C1C(Cc2ccccc2)CS(=O)(=O)N1CCl (stereo not drawn) [Compound 2D]
kinact/KI ([1]; Table 5): 2040 M⁻¹ s⁻¹ | kinact/KI ([2]; Table 5): 670 M⁻¹ s⁻¹

Compound: CC(C)C[C@@H]1NS(=O)(=O)N(CS(=O)(=O)c2ccccc2)C1=O [Compound 2E]
kinact/KI ([2]; Table 6): 190 M⁻¹ s⁻¹

Compound: O=C(Cc1ccccc1Nc1c(Cl)cccc1Cl)OCN1C(=O)C(Cc2ccccc2)CS1(=O)=O (stereo not drawn) [Compound 2]
kinact/KI ([1]; Table 1A): 80 M⁻¹ s⁻¹ | kinact/KI ([2]; Table 1A): 30 M⁻¹ s⁻¹

Compound: CC(C(=O)OCN1C(=O)C(Cc2ccccc2)CS1(=O)=O)c1cccc(C(=O)c2ccccc2)c1 (stereo not drawn) [Compound 3]
kinact/KI ([1]; Table 1A): 290 M⁻¹ s⁻¹ | kinact/KI ([2]; Table 1A): 210 M⁻¹ s⁻¹

Compound: CC(=O)Oc1ccccc1C(=O)OCN1C(=O)C(Cc2ccccc2)CS1(=O)=O (stereo not drawn) [Compound 4]
kinact/KI ([1]; Table 1A): 3000 M⁻¹ s⁻¹ | kinact/KI ([2]; Table 1A): 830 M⁻¹ s⁻¹
